Results: ChEMBL document CHEMBL3112424, “Discovery and optimization of pyrimidone indoline amide PI3Kβ inhibitors for the treatment of phosphatase and tensin homologue (PTEN)-deficient cancers” (J Med Chem, 2014)
Converted amounts (≈) assume the structure as drawn.

How the values were obtained:
[1] = target: Phosphatidylinositol 4,5-bisphosphate 3-kinase catalytic subunit gamma isoform (Homo sapiens, UniProt P48736); assay: Inhibition of C-terminal ploy-His-tagged human PI3Kgamma expressed in baculovirus-infected sf9 cells using PI(4,5)P2 as substrate after 15 mins by HTRF assay
Sequence of Phosphatidylinositol 4,5-bisphosphate 3-kinase catalytic subunit gamma isoform (P48736 whole entry, canonical isoform): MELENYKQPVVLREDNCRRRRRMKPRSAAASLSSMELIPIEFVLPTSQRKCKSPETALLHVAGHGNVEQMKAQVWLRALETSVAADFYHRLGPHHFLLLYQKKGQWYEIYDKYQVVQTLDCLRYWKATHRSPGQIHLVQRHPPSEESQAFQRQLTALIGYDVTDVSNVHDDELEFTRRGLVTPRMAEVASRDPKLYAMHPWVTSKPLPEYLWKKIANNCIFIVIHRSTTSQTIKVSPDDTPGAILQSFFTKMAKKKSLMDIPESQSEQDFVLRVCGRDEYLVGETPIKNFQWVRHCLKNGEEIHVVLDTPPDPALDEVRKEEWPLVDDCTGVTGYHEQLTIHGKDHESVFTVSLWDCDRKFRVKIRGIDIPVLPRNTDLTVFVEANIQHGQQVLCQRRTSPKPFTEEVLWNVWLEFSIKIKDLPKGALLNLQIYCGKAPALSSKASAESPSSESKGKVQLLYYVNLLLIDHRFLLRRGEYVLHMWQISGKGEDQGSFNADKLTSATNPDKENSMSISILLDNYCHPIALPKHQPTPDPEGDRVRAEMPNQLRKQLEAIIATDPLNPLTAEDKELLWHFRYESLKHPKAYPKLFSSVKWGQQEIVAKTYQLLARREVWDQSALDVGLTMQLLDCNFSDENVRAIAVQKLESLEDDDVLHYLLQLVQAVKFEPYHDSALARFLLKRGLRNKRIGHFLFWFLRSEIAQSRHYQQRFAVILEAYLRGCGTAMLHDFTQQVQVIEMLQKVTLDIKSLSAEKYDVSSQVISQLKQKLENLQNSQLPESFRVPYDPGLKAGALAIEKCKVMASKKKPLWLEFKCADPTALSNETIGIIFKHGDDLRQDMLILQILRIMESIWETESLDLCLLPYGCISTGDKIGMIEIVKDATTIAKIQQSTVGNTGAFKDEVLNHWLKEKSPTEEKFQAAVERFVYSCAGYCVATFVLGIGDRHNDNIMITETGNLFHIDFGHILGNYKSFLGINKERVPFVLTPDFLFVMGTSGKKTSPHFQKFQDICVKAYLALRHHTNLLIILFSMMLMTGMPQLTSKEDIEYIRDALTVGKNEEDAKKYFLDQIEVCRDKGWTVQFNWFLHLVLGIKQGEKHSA

[2] = target: T1, Phosphatidylinositol 4,5-bisphosphate 3-kinase catalytic subunit beta isoform (Homo sapiens, UniProt P42338); assay: Inhibition of PI3Kbeta-mediated Akt phosphorylation at S473 in PTEN-deficient human PC3 cells after 0.5 to 2 hrs by Immunoblotting assay; format: cell-based, PC-3
T1 sequence (P42338 whole entry, canonical isoform): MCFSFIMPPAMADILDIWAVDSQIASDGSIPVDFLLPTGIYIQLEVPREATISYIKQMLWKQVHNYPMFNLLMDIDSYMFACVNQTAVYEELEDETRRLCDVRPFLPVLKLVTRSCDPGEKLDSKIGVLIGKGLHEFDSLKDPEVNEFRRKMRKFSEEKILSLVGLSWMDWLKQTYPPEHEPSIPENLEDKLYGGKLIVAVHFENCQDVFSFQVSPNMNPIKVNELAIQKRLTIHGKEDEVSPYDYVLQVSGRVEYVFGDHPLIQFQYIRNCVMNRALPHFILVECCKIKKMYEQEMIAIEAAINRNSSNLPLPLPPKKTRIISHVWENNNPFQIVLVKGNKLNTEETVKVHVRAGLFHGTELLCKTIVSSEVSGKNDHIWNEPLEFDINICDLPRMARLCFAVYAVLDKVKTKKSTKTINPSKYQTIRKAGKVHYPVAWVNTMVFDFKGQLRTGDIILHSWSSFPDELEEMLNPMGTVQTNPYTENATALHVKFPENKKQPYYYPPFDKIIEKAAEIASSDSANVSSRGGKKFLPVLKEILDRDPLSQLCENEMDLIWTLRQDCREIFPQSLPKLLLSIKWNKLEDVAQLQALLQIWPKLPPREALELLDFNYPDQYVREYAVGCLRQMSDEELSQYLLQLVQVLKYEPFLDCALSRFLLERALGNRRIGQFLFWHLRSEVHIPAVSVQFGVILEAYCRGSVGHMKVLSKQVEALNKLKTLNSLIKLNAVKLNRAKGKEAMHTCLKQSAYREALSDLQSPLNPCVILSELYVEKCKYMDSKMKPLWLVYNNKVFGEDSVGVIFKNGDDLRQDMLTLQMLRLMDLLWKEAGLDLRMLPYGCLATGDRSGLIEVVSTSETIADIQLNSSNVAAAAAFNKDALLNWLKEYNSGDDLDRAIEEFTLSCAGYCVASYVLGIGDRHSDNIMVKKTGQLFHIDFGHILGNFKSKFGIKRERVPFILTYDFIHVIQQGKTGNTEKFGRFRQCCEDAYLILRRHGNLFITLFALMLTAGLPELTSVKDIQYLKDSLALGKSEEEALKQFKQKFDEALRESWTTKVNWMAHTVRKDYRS

Cytochrome P450 3A4 = Cytochrome P450 3A4 (Homo sapiens, UniProt P08684); assay: Inhibition of recombinant human CYP3A4
Sequence of Cytochrome P450 3A4 (P08684 whole entry, canonical isoform): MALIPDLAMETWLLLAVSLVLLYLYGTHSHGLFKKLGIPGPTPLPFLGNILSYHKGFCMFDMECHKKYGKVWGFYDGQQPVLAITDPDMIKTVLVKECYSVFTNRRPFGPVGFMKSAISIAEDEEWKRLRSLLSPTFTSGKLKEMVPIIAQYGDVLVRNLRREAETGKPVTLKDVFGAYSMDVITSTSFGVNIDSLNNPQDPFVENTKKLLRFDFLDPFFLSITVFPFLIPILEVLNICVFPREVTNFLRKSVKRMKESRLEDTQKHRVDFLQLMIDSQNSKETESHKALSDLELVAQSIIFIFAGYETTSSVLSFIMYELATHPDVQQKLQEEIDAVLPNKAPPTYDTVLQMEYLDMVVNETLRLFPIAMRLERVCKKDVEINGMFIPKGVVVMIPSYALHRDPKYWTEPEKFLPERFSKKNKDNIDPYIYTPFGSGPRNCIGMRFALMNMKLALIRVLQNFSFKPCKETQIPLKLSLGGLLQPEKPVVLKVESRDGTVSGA

[3] = target: Phosphatidylinositol 4,5-bisphosphate 3-kinase catalytic subunit alpha isoform (Homo sapiens, UniProt P42336); assay: Inhibition of N-terminal ploy-His-tagged human PI3Kalpha expressed in baculovirus-infected sf9 cells using PI(4,5)P2 as substrate after 15 mins by HTRF assay
Sequence of Phosphatidylinositol 4,5-bisphosphate 3-kinase catalytic subunit alpha isoform (P42336 whole entry, canonical isoform): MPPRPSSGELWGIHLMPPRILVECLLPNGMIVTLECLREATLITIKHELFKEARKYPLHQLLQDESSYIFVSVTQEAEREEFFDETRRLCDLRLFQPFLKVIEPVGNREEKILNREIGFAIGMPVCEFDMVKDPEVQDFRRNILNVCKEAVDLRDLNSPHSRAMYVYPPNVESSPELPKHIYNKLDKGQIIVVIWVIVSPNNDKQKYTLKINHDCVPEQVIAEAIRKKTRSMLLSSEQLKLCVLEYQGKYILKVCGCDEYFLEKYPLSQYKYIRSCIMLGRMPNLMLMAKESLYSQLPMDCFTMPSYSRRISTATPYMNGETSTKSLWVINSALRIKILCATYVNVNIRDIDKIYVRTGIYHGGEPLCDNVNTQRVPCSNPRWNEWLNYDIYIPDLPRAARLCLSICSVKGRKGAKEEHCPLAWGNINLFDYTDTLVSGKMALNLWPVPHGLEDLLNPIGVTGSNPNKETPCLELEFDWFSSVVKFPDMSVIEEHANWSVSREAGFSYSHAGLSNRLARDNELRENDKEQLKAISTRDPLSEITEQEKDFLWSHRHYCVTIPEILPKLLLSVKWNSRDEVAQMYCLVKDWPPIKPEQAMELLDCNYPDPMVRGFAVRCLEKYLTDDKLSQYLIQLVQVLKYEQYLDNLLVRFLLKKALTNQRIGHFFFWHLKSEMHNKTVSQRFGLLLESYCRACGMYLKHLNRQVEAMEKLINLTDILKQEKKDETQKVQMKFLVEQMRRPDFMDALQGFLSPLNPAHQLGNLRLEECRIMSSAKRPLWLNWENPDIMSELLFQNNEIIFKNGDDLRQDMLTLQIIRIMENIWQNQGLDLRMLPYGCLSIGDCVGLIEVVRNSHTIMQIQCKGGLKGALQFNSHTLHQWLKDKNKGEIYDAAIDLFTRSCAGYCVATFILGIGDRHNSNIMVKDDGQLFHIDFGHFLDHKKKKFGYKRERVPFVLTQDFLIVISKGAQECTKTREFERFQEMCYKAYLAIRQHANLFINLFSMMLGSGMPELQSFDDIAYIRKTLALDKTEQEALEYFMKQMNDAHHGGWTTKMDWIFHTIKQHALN

[4] = Solubility of the compound in phosphate buffer at pH 7.4 by HPLC analysis; details: phosphate buffer
[5] = Apparent permeability in human Caco2 cells at 5 uM after 20 mins; details: Caco-2
[6] = target: T1, Phosphatidylinositol 4,5-bisphosphate 3-kinase catalytic subunit beta isoform; assay: Inhibition of N-terminal ploy-His-tagged human PI3Kbeta expressed in baculovirus-infected sf21 cells using PI(4,5)P2 as substrate after 15 mins by HTRF assay
[7] = Metabolic stability in mouse liver microsomes at 5 uM after 20 mins
[8] = Metabolic stability in human liver microsomes at 5 uM after 20 mins
[9] = target: T2, Phosphatidylinositol 4,5-bisphosphate 3-kinase catalytic subunit delta isoform (Homo sapiens, UniProt O00329); assay: Inhibition of N-terminal ploy-His-tagged human PI3Kdelta expressed in baculovirus-infected sf9 cells using PI(4,5)P2 as substrate after 15 mins by HTRF assay
T2 sequence (O00329 whole entry): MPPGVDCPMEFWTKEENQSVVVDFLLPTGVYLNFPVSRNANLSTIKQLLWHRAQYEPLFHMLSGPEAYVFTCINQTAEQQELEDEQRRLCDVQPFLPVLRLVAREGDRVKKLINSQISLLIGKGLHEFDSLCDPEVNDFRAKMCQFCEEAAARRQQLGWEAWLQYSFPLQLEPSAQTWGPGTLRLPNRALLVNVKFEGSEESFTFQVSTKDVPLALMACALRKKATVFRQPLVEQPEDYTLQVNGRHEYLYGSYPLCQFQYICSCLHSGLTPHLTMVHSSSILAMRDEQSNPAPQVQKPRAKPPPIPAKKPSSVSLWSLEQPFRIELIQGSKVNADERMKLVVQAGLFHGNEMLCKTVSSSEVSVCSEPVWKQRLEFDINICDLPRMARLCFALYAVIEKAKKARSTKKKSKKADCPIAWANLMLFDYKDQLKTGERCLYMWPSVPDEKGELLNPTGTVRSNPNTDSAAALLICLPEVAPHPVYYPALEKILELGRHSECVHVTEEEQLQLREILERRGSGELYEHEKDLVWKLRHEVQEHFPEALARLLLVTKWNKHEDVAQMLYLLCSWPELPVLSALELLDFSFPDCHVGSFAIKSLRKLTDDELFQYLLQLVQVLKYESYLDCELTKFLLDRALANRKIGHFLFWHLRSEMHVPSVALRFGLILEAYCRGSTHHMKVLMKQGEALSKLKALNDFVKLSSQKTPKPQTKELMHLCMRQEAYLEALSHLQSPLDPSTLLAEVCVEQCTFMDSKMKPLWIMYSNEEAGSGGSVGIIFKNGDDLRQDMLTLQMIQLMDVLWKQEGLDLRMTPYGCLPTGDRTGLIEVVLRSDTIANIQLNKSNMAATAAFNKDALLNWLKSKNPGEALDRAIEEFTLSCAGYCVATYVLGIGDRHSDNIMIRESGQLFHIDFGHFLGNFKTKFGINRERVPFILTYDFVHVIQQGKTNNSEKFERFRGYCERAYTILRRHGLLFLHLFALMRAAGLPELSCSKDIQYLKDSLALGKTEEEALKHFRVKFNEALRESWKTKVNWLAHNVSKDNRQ

[10] = Dissociation constant, pKa of the compound; format: physicochemical
[11] = Lipophilicity, log D of the compound; format: physicochemical; details: octanol/water
PC-3 = assay: Antitumor activity against po dosed PTEN-deficient human PC3 cells xenografted in nude mouse assessed as tumor growth inhibition administered as qd measured for 52 days; format: functional

| SMILES | IC50 [1] [nM] | IC50 [2] [nM] | IC50 (Cytochrome P450 3A4) [nM] | IC50 [3] [nM] | solubility [4] [µM] | Papp at 20 min, 5 µM [5] [×10⁻⁶ cm/s] | IC50 [6] [nM] | remaining at 20 min, 5 µM ([7]; liver microsomes) [%] | remaining at 20 min, 5 µM ([8]; liver microsomes) [%] | IC50 [9] [nM] | pKa [10] | logD [11] | remaining at 20 min, 5 µM ([7]; microsomes) [%] | remaining at 20 min, 5 µM ([8]; microsomes) [%] | T/C (PC-3) [%] |
| --- | --- | --- | --- | --- | --- | --- | --- | --- | --- | --- | --- | --- | --- | --- | --- |
| O=C(Cc1nc(N2CCOCC2)cc(=O)[nH]1)N1CCc2cc(Cl)ccc21 | 10000 | 124 | 40000 | 2020 | 3 (≈ 1.12 µg/mL) | 1.4 | 79 | 36 | 34 | 4130 |  |  |  |  |  |
| O=C(Cc1nc(N2CCOCC2)cc(=O)[nH]1)N1CCc2c(Cl)cccc21 | 1130 | 3 | 40000 | 86 | 5 (≈ 1.87 µg/mL) | 8.8 | 1 | 27 | 18 | 21 |  |  |  |  |  |
| O=C(Cc1nc(N2CCOCC2)cc(=O)[nH]1)N1CCc2cc(F)ccc21 | 1590 | 7 | 40000 | 426 | 31 (≈ 11.1 µg/mL) | 3 | 4 | 14 | 18 | 17 |  |  |  |  |  |
| O=C(Cc1nc(N2CCOCC2)cc(=O)[nH]1)N1CCc2ccccc21 | 10000 | 15 | 40000 | 460 | 12 (≈ 4.08 µg/mL) | 5.9 | 4 | 21 | 12 | 28 |  |  |  |  |  |
| CC1(C)Cc2ccccc2N1C(=O)Cc1nc(N2CCOCC2)cc(=O)[nH]1 |  | 78 |  |  | 46 (≈ 16.9 µg/mL) |  | 102 |  |  | 580 |  |  |  |  |  |
| O=C(Cc1nc(N2CCOCC2)cc(=O)[nH]1)N1CCc2c(Br)cccc21 | 3980 | 1 | 40000 | 85 | 2 (≈ 0.839 µg/mL) | 4.2 | 6 | 22 | 24 | 55 |  |  |  |  |  |
| O=C(Cc1nc(N2CCOCC2)cc(=O)[nH]1)N1CCc2c(-c3ccncc3)cccc21 | 1000 | 94 | 31000 | 1000 | 69 (≈ 28.8 µg/mL) | 0.4 | 10 | 44 | 43 | 22 | 4.5 | 1.99 |  |  |  |
| O=C(Cc1nc(N2CCOCC2)cc(=O)[nH]1)N1CCc2c(-c3cccnc3)cccc21 | 2460 | 53 | 40000 | 361 | 60 (≈ 25 µg/mL) | 0.8 | 17 | 49 | 29 | 7 | 4.5 | 1.99 |  |  |  |
| CN1CCN(c2cccc3c2CCN3C(=O)Cc2nc(N3CCOCC3)cc(=O)[nH]2)CC1 | 10000 | 167 |  | 960 | 1500 (≈ 656 µg/mL) |  | 407 |  |  | 22 |  |  |  |  |  |
| O=C(Cc1nc(N2CCOCC2)cc(=O)[nH]1)N1CCc2c(F)cccc21 | 6220 |  |  | 2450 |  |  |  |  |  | 122 |  |  | 9 | 19 |  |
| O=C(Cc1nc(N2CCOCC2)cc(=O)[nH]1)N1CCc2c(-c3ccccn3)cccc21 | 8970 | 66 | 11000 | 2380 | 110 (≈ 45.9 µg/mL) | 4.2 | 98 | 40 | 36 | 106 |  |  |  |  |  |
| O=C(Cc1nc(N2CCOCC2)cc(=O)[nH]1)N1CCc2c1cccc2C(F)(F)F | 8400 | 9 | 40000 | 390 | 12 (≈ 4.9 µg/mL) | 4.6 | 10 | 13 | 24 | 98 |  |  |  |  |  |
| Cn1c(Cc2nc(N3CCOCC3)cc(=O)[nH]2)nc2ccccc21 | 10000 |  |  |  |  |  |  |  |  |  |  |  |  |  |  |
| Cn1c(CC(=O)N2CCc3ccccc32)nc(N2CCOCC2)cc1=O |  | 20 |  | 4320 | 36 (≈ 12.8 µg/mL) | 8.3 | 48 | 37 | 14 | 278 |  |  |  |  |  |
| O=C(Cc1nc(N2CCOCC2)cc(=O)[nH]1)N1CCc2c(OC(F)(F)F)cccc21 | 7420 | 54 | 40000 | 1000 | 12 (≈ 5.09 µg/mL) | 4.1 | 33 | 44 | 48 | 34 |  |  |  |  |  |
| C[C@H]1c2cccc(O)c2C(=O)C2=C(O)[C@]3(O)C(=O)C(C(N)=O)=C(O)[C@@H](N(C)C)[C@@H]3[C@@H](O)[C@@H]21.O [DOXYCYCLINE] |  |  |  |  |  |  |  |  |  |  |  |  |  |  | 49 |
| O=C(Cc1nc(N2CCOCC2)cc(=O)[nH]1)N1CCc2c(-c3ccccc3)cccc21 | 1530 | 24 | 40000 | 217 |  | 7.1 | 8 | 25 | 40 | 18 |  |  |  |  |  |
| CC1Cc2ccccc2N1C(=O)Cc1nc(N2CCOCC2)cc(=O)[nH]1 (racemic) | 9150 | 6 |  |  | 2750 (≈ 976 µg/mL) |  | 4 |  |  | 36 |  |  |  |  |  |
| COc1cccc2c1CCN2C(=O)Cc1nc(N2CCOCC2)cc(=O)[nH]1 |  | 60 | 40000 | 2420 | 5 (≈ 1.85 µg/mL) | 0.6 | 41 | 70 | 0 | 648 |  |  |  |  |  |
| C[C@@H]1Cc2ccccc2N1C(=O)Cc1nc(N2CCOCC2)cc(=O)[nH]1 | 3320 | 12 | 40000 |  | 2500 (≈ 885 µg/mL) | 5.1 | 6 | 52 | 43 | 6 |  |  |  |  |  |
| CN1CCN(Cc2cccc3c2CCN3C(=O)Cc2nc(N3CCOCC3)cc(=O)[nH]2)CC1 |  | 272 |  | 660 | 4420 (≈ 2000 µg/mL) |  | 332 |  |  | 2 |  |  |  |  |  |
| CC1(C)CN(C(=O)Cc2nc(N3CCOCC3)cc(=O)[nH]2)c2ccccc21 |  | 28 | 40000 | 5420 | 46 (≈ 16.9 µg/mL) | 4 | 17 | 87 | 83 | 278 |  |  |  |  |  |
| CC1CN(C(=O)Cc2nc(N3CCOCC3)cc(=O)[nH]2)c2ccccc21 (racemic) | 10000 | 13 | 40000 | 2260 | 3 (≈ 1.06 µg/mL) | 7.5 | 22 | 40 | 47 | 87 |  |  |  |  |  |
| Cc1cccc2c1CCN2C(=O)Cc1nc(N2CCOCC2)cc(=O)[nH]1 | 1780 | 3 |  | 138 | 3 (≈ 1.06 µg/mL) | 7.4 | 5 | 60 | 32 | 24 |  |  |  |  |  |
